# Reference: patent US11584709B2, “Multitarget drug for treating diseases in mammals” (“PHARMENTERPRISES EURASIA” LIMITED LIABILITY COMPANY, priority 2017, dated 2023)
# Experiments:
# [1] = system: model of Crohn's disease; assay: Mouse model of Crohn's disease (TNBS); format: in vivo, male balb/c mice; conditions: for The portion of dead animals: TNBS, 7 days, 10 animals
# Experimental: The study was performed on male balb/c mice. Animals, which starved for 24 hours, were injected with 150 μl/mouse of TNBS solution in 50% ethanol into the rectal hole of the mouse to the depth of 4 cm using a 3.5 F catheter. Next, the mice were turned upside down and held for 60 seconds. 150 μl of the 50% ethanol solution was injected into the healthy control (intact animals). The study lasted 7 days. The development of pathology was assessed by the death of animals.
# [2] = system: indomethacin colitis; assay: Model of colitis induced by indomethacin; format: in vivo, male Wistar rats; conditions: day 4
# Experimental: The study was performed on male Wistar rats, which were subcutaneously injected with an indomethacin solution in a dose of 9 mg/kg for two days running to induce colitis. The injection solution was prepared as follows: first, indomethacin was dissolved in 100% ethanol, then it was diluted in 5% NaHCO3 solution. On the 4th day after euthanasia, the stomach and intestine were removed from the animals in the CO2 chamber, then the caecum was excised, 10 cm from the ileum and large intestine was cut off, and 5 cm—from the caecum, to assess gross lesions (J Ethnopharmacol. 2004 February; 90(2-3): 195-204).
# [3] = system: motility of the gastrointestinal tract; assay: Model of irritable bowel syndrome: motility of the gastrointestinal tract (activated carbon); format: in vivo, nonlinear male mice
# Experimental: The effect on the motility of the gastrointestinal tract was studied on a model of irritable bowel syndrome in nonlinear male mice weighing 24-30 g. The animals were intragastrically injected with a solution of activated carbon (50 mg/ml, in a volume of 10 ml/kg) and the speed (in minutes) of the movement of activated coal through the intestines of animals. The compounds under study were intragastrically administered once 1 hour before the introduction of activated carbon. Drotaverine (6.7 mg/kg), Buscopan (3 mg/kg) and Trimedat (33 mg/kg) were used as reference drugs.
# [4] = system: imiquimod-induced ear psoriasis; assay: Mouse model of imiquimod-induced ear psoriasis; format: in vivo, female balb/c mice; conditions: 0.05%, M ± m, n = 10
# Experimental: Psoriasis was simulated in female balb/c mice by applying Aldar cream (5% imiquimod) on the inner side of the right ear daily 1 time per day for 10 days (J Immunol. 2009 May 1; 182(9):5836-45). Vaseline was applied to intact animals: 20 mg on the right ear.
# The assessment of the development of pathology was performed on 2nd, 4th, 6th, 8th and 10th day before the next application of Aldar cream by measuring the thickness of the left and right ears.
# [5] = system: imiquimod-induced psoriasis on the back; assay: Mouse model of imiquimod-induced psoriasis on the back; format: in vivo
# Experimental: Psoriasis was simulated in female balb/c mice by applying Aldar cream (5% imiquimod) on a previously shaved skin back area of 3×4 cm daily 1 time per day for 15 days (J Immunol. 2009 May 1; 182(9):5836-45). Intact animals were applied with vaseline: 120 mg per the shaved back area.
# The assessment of the development of pathology was performed on the 10th, 12th, 13th and 15th day before the next application of Aldar cream according to the index: the thickness of the skin fold on the back. The thickness of the skin fold on the back was measured with a Digimatic MK-25 micrometer (Mitutoyo, Japan).
# [6] = system: diarrhea induced by castor oil; assay: Mouse model of diarrhea induced by castor oil; format: in vivo, Balb/c mice; conditions: 1 mg/kg; M ± m, n = 10; observation 4 hours
# Experimental: Balb/c mice, which starved for 24 hours, were given castor oil intragastrically. Then the animals were encaged into individual cages with a bottom covered with white paper, and time before the onset of diarrhea was noted. The observation time is 4 hours (J Pharm Pharmacol. 2015 February; 67(2):244-54).
# [7] = inducer alone (control group), 9 mg/kg subcutaneously two days running
smiles,measurement,setting,value
C[C@]12C=CC(=O)C=C1CC[C@@H]1[C@@H]2[C@@H](O)C[C@@]2(C)[C@H]1CC[C@]2(O)C(=O)CO [Prednisolone],The portion of dead animals,"[1]; 5 mg/kg, 1 time per day",80%
same,The portion of dead animals,[1]; 10 mg/kg,60%
same,reduction of the mortality,[1]; summary of Table 4,20-40%
same,"Macroscopic assessment of the lesion, Caecum","[2]; 2 mg/kg, M ± m, n = 10",0.3 ± 0.2& points
same,"Macroscopic assessment of the lesion, Ileum","[2]; 2 mg/kg, M ± m, n = 10",0.6 ± 0.6& points
same,"Macroscopic assessment of the lesion, Large intestine","[2]; 2 mg/kg, M ± m, n = 10",0.4 ± 0.2 points
same,"Macroscopic assessment of the lesion, Overall assessment","[2]; 2 mg/kg, M ± m, n = 10",1.3 ± 0.9& points
COc1ccc2c(c1)c(CC(=O)O)c(C)n2C(=O)c1ccc(Cl)cc1 [Indomethacin],"Macroscopic assessment of the lesion, Caecum",[2]; [7],1.2 ± 0.4 points
same,"Macroscopic assessment of the lesion, Ileum",[2]; [7],5.6 ± 1.2 points
same,"Macroscopic assessment of the lesion, Large intestine",[2]; [7],1.2 ± 0.3 points
same,"Macroscopic assessment of the lesion, Overall assessment",[2]; [7],8.0 ± 1.3 points
"CCC(COC(=O)c1cc(OC)c(OC)c(OC)c1)(c1ccccc1)N(C)C.O=C(O)/C=C\C(=O)O (centres unmarked) [Trimedat, reference compound]",The evacuation speed of activated carbon,[3]; 33 mg/kg once intragastrically 1 hour before activated carbon,83.65 ± 2.42 min
"CCC(=O)O[C@]1(C(=O)CCl)[C@@H](C)C[C@H]2[C@@H]3CCC4=CC(=O)C=C[C@]4(C)[C@@]3(F)[C@@H](O)C[C@@]21C [Dermovate, clobetasol, reference compound]",The gain in the thickness of the right (affected) ear relatively day 0,[4]; day 2,18.9%
same,The gain in the thickness of the right (affected) ear relatively day 0,[4]; day 4,22.6%
same,The gain in the thickness of the right (affected) ear relatively day 0,[4]; day 6,24.6%
same,The gain in the thickness of the right (affected) ear relatively day 0,[4]; day 8,21.3%
same,The gain in the thickness of the right (affected) ear relatively day 0,[4]; day 10,16.5%
same,The gain of the thickness of the back skin to the thickness before the start of the study,"[5]; 0.05%, day 10, M ± m, n = 10",−26.8%
same,toxic effect,"[5]; on the 12th day of the study, thinning the skin",total death of animals
"CN(C)C(=O)C(CCN1CCC(O)(c2ccc(Cl)cc2)CC1)(c1ccccc1)c1ccccc1 [Loperamide, reference compound]",The time of onset of diarrhea,[6],56.40 ± 5.14& min
"CCCC[N+]1(C)[C@@H]2C[C@@H](OC(=O)[C@H](CO)c3ccccc3)C[C@H]1[C@@H]1O[C@@H]12 (some centres unmarked) [Buscopan, reference compound]",The evacuation speed of activated carbon,[3]; 3 mg/kg once intragastrically 1 hour before activated carbon,73.2 ± 2.87 min
"CCOc1ccc(/C=C2\NCCc3cc(OCC)c(OCC)cc32)cc1OCC [Drotaverine, reference compound]",The time of onset of diarrhea,[6],43.60 ± 2.61& min
same,The evacuation speed of activated carbon,[3]; 6.7 mg/kg once intragastrically 1 hour before activated carbon,105.85 ± 2.39 min
